# Assays:
# neutrophils [1] = assay: LPS model of acute pulmonary inflammation in rat; assay type: in vivo
# Text: The administration of lipopolysaccharides (LPS) from gram-negative bacteria cell walls to the lungs of rats results in a rapid increase in the total number of leukocytes in the lumen of the lungs. The increase of neutrophils in the lung in the LPS model represents the conditions present a patients with chronic respiratory diseases such as cystic fibrosis, chronic bronchitis, emphysema, and certain subtypes of asthma. The LPS model of acute pulmonary inflammation is a well-established model for testing compounds having potential activities in treating inflammatory airway diseases.
# Compound 11 (35 mg/kg) or vehicle (0.5% aqueous methylcellulose) was orally administered to groups of rats 15 minutes prior to pulmonary aerosolized LPS (˜2 micrograms/rat) or placebo (air) exposure (20 minute exposure) and 2.5 and 5 hours following the initial oral administration. Eight hours after pulmonary administration of aerosolized LPS, the lungs were lavaged to obtain bronchoalveolar lavage fluid, containing accumulated leukocytes.
# neutrophils [2] = assay: Inhibition of neutrophil chemotaxis (Boyden type chemotaxis chamber); assay type: cell-based, human; conditions: isolated neutrophils, chemoattractant in lower chamber, one to three hours at 37 C, effective concentrations of inhibitor
# Description: Neutrophils were isolated from peripheral blood donated by healthy volunteers. Twenty milliliters of whole blood containing ACD ([…]) as an anticoagulant was layered over twenty milliliters Ficoll-Pacque Plus (Stem Cell Technologies, Vancouver, BC) and centrifuged for 45 minutes at 1500 rpm. Following centrifugation, the red blood cell layer (also containing the granulocytes) at the bottom of the tube was retained in the centrifugation tube while the top layers were removed. The red blood cell and granulocytes were combined with an equal volume of 3% Dextran 500 (Amersham Biosciences, Uppsala, Sweden) and mixed gently. The red blood cells were allowed to sediment for 30 minutes. […] The cells were resuspended in Hank's Balanced Salt Solution (HBSS, Invitrogen, Grand Island, N.Y.), and counted on a hemacytometer. […] Cell viability was determined through trypan blue exclusion and was greater than 95%. […]
# Chemoattractant compounds (e.g. fMLP) are prepared as 20 mM stock solutions and dissolved in either DMSO or water. […] The number of migrated cells is determined by microscopy and counting the number of cells per high powered field.
# Inhibitors of neutrophil chemotaxis are identified using a Boyden type chemotaxis chamber. […] The number of migrated cells is determined by microscopy and counting the number of cells per high powered field.
smiles,measurement,setting,value
"CCNC(=O)Nc1ncnc2c1ncn2C1OC(CCC(=O)O)C2OC(/C=C/c3ccccc3)OC21 (stereo not drawn) [Compound 11, trans-3-{6-[6-(3-ethyl-ureido)-purin-9-yl]-2-styryl-tetrahydro-furo[3,4-d][1,3]dioxol-4-yl}-propionic acid]",number of neutrophils found in the lumen of the lungs (FIG. 1),"neutrophils [1]; rats treated with compound compared with animals not receiving it, acute model of pulmonary inflammation",significant reduction
same,decrease in the number of neutrophils recovered in the lavage fluid,"neutrophils [1]; rats, 35 mg/kg oral 15 min prior to aerosolized LPS and 2.5 and 5 hours after first dose, lavage 8 hours after LPS, vs vehicle and LPS, p<0.001",56.6%
same,number of migrated neutrophils,neutrophils [2],significant decrease

# From patent US20070249556A1, “METHOD OF TREATING INFLAMMATION” (priority 2006, published 2007)
